Measurements: patent US12496350B2 (Ohio State Innovation Foundation, priority 2018, dated 2025)
pIC50: −log10 of the molar value. Where a SMILES comes first, the peptide text is derived from it. Bridges are numbered along the chain shown (N, C = ends). [ ]: non-standard residue; d: D form. 2Nal = N[C@@H](Cc1ccc2ccccc2c1)C(=O)O; Bta = N[C@@H](Cc1csc2ccccc12)C(=O)O; Pen = CC(C)(S)[C@H](N)C(=O)O; Tle = CC(C)(C)[C@H](N)C(=O)O; Pip = O=C(O)[C@@H]1CCCCN1

Tests used:
[1] = target: T1, CAL PDZ domain (CALP5-His) (Homo sapiens, UniProt Q9HD26); assay: FP/FA-based competition assay, Condition A (probe peptide 26); assay type: binding; conditions: Condition A (superscript a): 50 nM probe peptide 26, 100 nM CALP5-His, 2 mM TCEP
T1 construct: His
Source text: First, the C-terminal valine (position 0) was replaced with a variety of residues and evaluated for binding to CAL PDZ domain in silico.

HeLa cells = assay: Cellular uptake efficiency by flow cytometry; assay type: cell-based; conditions: HeLa cells
Procedure: (§1) Cellular Uptake Efficiency: HeLa cells were seeded into 12-well cell-culture treated plates at a final density of 15×10^4 cells/well in DMEM supplemented with 10% FBS and 1% penicillin/streptomycin and incubated overnight at 37° ° C. and 5% CO2. After 24 h, the media was aspirated followed by washing the cells three times with warm DPBS. Peptides were diluted to a final concentration of 5 μM in DMEM containing 10% FBS with 1% penicillin/streptomycin, added to each well and then incubated for 2 h at 37° C. and 5% CO2. After 2 h, treatment media was aspirated and the cells were washed three times with ice-cold DPBS. Cells were removed from the plate via treatment with trypsin/EDTA and then harvested in ice-cold DPBS followed by centrifugation at ×300 RCF, 4° C. for 5 min. Cells were resuspended in DPBS and quantified using a BD Biosciences LSR II flow cytometer and gated using FlowJo. Values for uptake are provided as a percentage relative to positive control, CPP9 ([cyclo-fΦRrRrQ]-miniPEG-K[NF]).
as §1, with “Cellular Uptake. HeLa cells” for “Cellular Uptake Efficiency: HeLa cells”, “at 37° C. and” for “at 37° ° C. and”, “37° C. with 5% CO2.” for “37° C. and 5% CO2.”, “centrifugation at 300 g, 4° C.” for “centrifugation at ×300 RCF, 4° C.”, “control, CPP9 ([cyclo-fΦRrRrQ]-miniPEG-K[NF]), which has a 62% cytosolic entry efficiency. PGD97 entered HeLa cells at 60% efficiency relative to CPP9, corresponding to an absolute cytosolic entry efficiency of ˜36% (FIG. 9).” for “control, CPP9 ([cyclo-fΦRrRrQ]-miniPEG-K[NF]).”

H358 (lung cancer) cells = assay: Cytotoxicity, MTT assay; assay type: cell-based; conditions: 72 h, up to 50 μM
Procedure: (§2) Cytotoxicity. CFBE, HCT116 (colorectal cancer), or H358 (lung cancer) cells were seeded into a 96-well microplate (5000 cells per well) in full growth media and incubated at 37° C. overnight. A serial dilution of PGD97 was prepared in DPBS and then added to each well. The treated cells were incubated at 37° C. with 5% CO2 for 72 h. Following compound treatment, 10 μL of MTT stock solution was added to each well. After an additional 4 h at 37° C., 100 μL of SDS-HCl solubilizing solution was added to each well and the plate was returned to the incubator overnight at 37° C. A Tecan Infinite M1000 Pro microplate reader was used the following morning to measure the absorbance of the formazan product at 565 nm.

CFBE cells [2] = assay: Cytotoxicity, MTT assay; assay type: cell-based; conditions: 72 h, up to 50 μM
Procedure: as §2

[3] = test system: HCT116 (colorectal cancer) cells; assay: Cytotoxicity, MTT assay; assay type: cell-based; conditions: 72 h, up to 50 μM
Procedure: as §2

[4] = test system: patient-derived primary cells; assay: Short-circuit current, Ussing chamber; assay type: cell-based, human; conditions: 100 nM with 10 μM VX661, 24 h
Procedure: (§3) Effect on Ion Channel Activity. CFBE or patient-derived primary cells were seeded onto filter inserts and grown to confluence at 37° C. in complete growth medium containing 10% FBS and 1% penicillin/streptomycin. Once confluent, cells were gently washed with DPBS and 10 µM VX661 and/or 100 nM PGD97 were added in complete growth medium supplemented with 10% FBS and 1% penicillin/streptomycin for 4 h or 24 h at 37° ° C. before measuring short circuit current using an Ussing chamber. PGD97 improved the ion channel activity by 33% and 37% relative to VX661 only controls after 4 and 24 h, respectively (FIGS. 12A and 12B).

LC3-II = assay: Autophagy in macrophages, western blotting for LC3-II; assay type: cell-based, human; conditions: 100 nM, 48 h, ΔF508 CFTR macrophages
Procedure: Effect on Autophagy in Macrophage. Human primary ΔF508 CFTR macrophages were incubated with 10 μM VX809 (n=1) or 100 nM PGD97 (n=2) for 48 h in complete growth medium supplemented with 10% FBS and 1% penicillin/streptomycin at 37° C. Induction of autophagy was determined via western blotting for autophagy-associated protein LC3-II.

CFBE cells [5] = assay: Short-circuit current, Ussing chamber; assay type: cell-based; conditions: 100 nM with 10 μM VX661, relative to VX661 only control
Procedure: as §3

ΔF508CFTR-FAP = assay: ΔF508 CFTR membrane expression, FAP assay in HEK-293T cells; assay type: cell-based
Procedure: Effect on ΔF508 CFTR Membrane Expression. HEK-293T cells stably expressing ΔF508CFTR-FAP (Holleran et al. Mol. Med. 2012, 18, 685-696) were seeded into poly-L-lysine-coated white-wall, clear bottom 96-well plates (100,000 cells/well) in complete growth medium and incubated for 24 h at 27° ° C. or 37° C. and 5% CO2. After 24 h, media was aspirated from each well and washed twice with warm DPBS. Compound serial dilutions with or without 10 μM VX809 were added to each well in fresh penicillin/streptomycin-free media containing 10% FBS and incubated at 27° ° C. or 37° ° C. in 5% CO2 for 24 h. After 24 h, the media was aspirated and each well was washed 3× with warm DPBS. 500 nM MG-B-Tau and 500 nM Hoechst 33342 was added in DPBS and MG-B-Tau fluorescence was immediately measured on a TECAN Infinite M1000 plate reader (excitation=640 nm, emission=680 nm, 10 nm bandwidth, 16 distinct points per well). After measurement, the plate was returned to the incubator at 37° C. for 1 h before quantifying Hoechst 33342 fluorescence on a TECAN Infinite M1000 plate reader (excitation=362 nm, emission=492 nm, 5 nm bandwidth, identical points per well as measured for MG-B-Tau). Cell-count normalized fluorescent intensity was determined by dividing the per-well MG-B-Tau intensity by Hoechst intensity and then plotted relative to untreated control using GraphPad PRISM ver. 7.0.

HCT116 cell spheroids = assay: Intracellular stability by MALDI imaging; assay type: in vitro ADME; conditions: after 4 or 24 h incubation with PGD97
Procedure: Intracellular Stability. PGD97 ([…]) was added to HCT116 cell spheroids in RPMI-1640 medium supplemented with 10% FBS and 1% penicillin/streptomycin and incubated for 4 or 24 h. After incubation, spheroids were washed 3× with DPBS, quickly frozen, embedded in a solid support, and cryo-sectioned. Prior to analysis, sinapinic acid was sublimed onto individual slides. The sample was imaged using a Bruker ultrafleXtreme MALDI-TOF-TOF and analyzed for the presence of proteolytic degradation fragments. Heatmaps, scaled relative to the most intense signal, were generated for the intact peptide (both 29 and 32) as well as ˜20 potential proteolytic fragments at each time point. […] A degradation fragment (#1) corresponding to proteolytic cleavage between Thr and Arg (FIG. 8B) was observed, but none of the other potential degradation products were observed. […] Most importantly, significant concentrations of intact peptide 29 was still present inside the cells after 24 h.

CC(=O)N[C@@H](CS)C(=O)N[C@@H](CCCNC(=N)N)C(=O)N[C@H](CCCNC(=N)N)C(=O)N[C@@H](CCCNC(=N)N)C(=O)N[C@@H](Cc1ccc2ccccc2c1)C(=O)N[C@@H](Cc1c[nH]c2ccccc12)C(=O)N[C@@H](CCC(N)=O)C(=O)N[C@H](C(=O)N[C@H](C(=O)N[C@@H](CCCNC(=N)N)C(=O)N[C@H](C(=O)O)C(C)(C)C)[C@@H](C)O)C(C)(C)S [Compound 22, Ac-Cys-Arg-(D-Arg)-Arg-(2-Nal)-Trp-Gln-Pen-Thr-Arg-Tle-OH] (Ac-CR[dR]R[2Nal]WQ[Pen]TR[Tle]-OH)
pIC50 [1]: 6.40
Uptake (% rel.) (HeLa cells; 5 μM, 2 h, relative to CPP9 (100%)): 17 ± 2%

CC(=O)N[C@H]1CSSC(C)(C)[C@@H](C(=O)N[C@H](C(=O)N[C@@H](CCCNC(=N)N)C(=O)N[C@H](C(=O)O)C(C)(C)C)[C@@H](C)O)NC(=O)[C@@H]2CCCCN2C(=O)[C@H](Cc2csc3ccccc23)NC(=O)[C@H](Cc2ccc3ccccc3c2)NC(=O)[C@H](CCCNC(=N)N)NC(=O)[C@H](CCCNC(=N)N)NC(=O)[C@@H](CCCNC(=N)N)NC1=O [Compound 32, Ac-Cys*-(D-Arg)-Arg-Arg-Nal-Bta-Pip-Pen*-Thr-Arg-Tle-OH] (Ac-C[dR]RR[2Nal][Bta][Pip][Pen]TR[Tle]-OH; disulfide 1-8)
cell viability (H358 (lung cancer) cells): did not significantly reduce the viability
cell viability (CFBE cells [2]): did not significantly reduce the viability
cell viability [3]: did not significantly reduce the viability
ion channel activity (short-circuit current) [4]: significantly increased the ion channel activity
LC3-II protein levels (LC3-II): increased the LC3-II protein levels to nearly WT level
improvement of ion channel activity (short-circuit current) (CFBE cells [5]; after 4 h): 33%
improvement of ion channel activity (short-circuit current) (CFBE cells [5]; after 24 h): 37%
concentrations at which increased expression was observed (ΔF508CFTR-FAP): 10 to 1000 nM
cell surface expression of ΔF508CFTR-FAP (ΔF508CFTR-FAP; 10 μM PGD97): reduced its surface expression
cell surface expression of ΔF508CFTR-FAP (ΔF508CFTR-FAP; PGD97 alone, 27° C., 24 h): slightly increased
cell surface expression of ΔF508CFTR-FAP (ΔF508CFTR-FAP; in combination with 10 μM VX809, 27° C.): further increase in cell surface expression
cytosolic entry efficiency relative to CPP9 (HeLa cells; 5 μM, 2 h): 60%
absolute cytosolic entry efficiency (HeLa cells; from relative efficiency and CPP9 value): ~36%
presence of intact peptide in spheroids (HCT116 cell spheroids): not
